Results from patent publication US12059682B2, “Method for isolation and morphological analysis of cells” (EzDiaTech Inc., priority 2018, dated 2024).
Converted amounts (≈) assume the structure as drawn.

Key:
[1] = test system: Escherichia coli (E. coli) ATCC 25922; assay: Rapid antibiotic susceptibility test with microwell-patterned hydrogel in 96 well plate, time-lapse imaging; format: cell-based
Procedure: (§1) FIG. 2 is a schematic diagram illustrating a technique for dissociating cell colonies into cells at the level of individual cells and continuously observing the morphological changes of the isolated single cells by utilizing a hydrogel structure according to one embodiment of the present disclosure. Referring to (a) of FIG. 2, a conventional 96 well plate is prepared, and thereafter, a dried microwell-patterned hydrogel is inserted into each well. Referring next to (b) of FIG. 2, a cell culture medium containing bacterial cells, nutrients and antibiotics is introduced into each well containing the dry microwell-patterned hydrogel. At the initial stage of introduction, the bottom microwells of the microwell-patterned hydrogel are not yet seated on the base of the well and the microwell-patterned hydrogel is slightly floating. Thus, the bacterial cells are free to move in and out of each microwell pattern.
(§2) Referring to (c) of FIG. 2, several or tens of minutes after the introduction, the microwell-patterned hydrogel swells and approaches the inner wall of the well. As a result, the top of the microwell-patterned hydrogel is in close contact with the inner sidewall of the well and the bottom of the microwell-patterned hydrogel is seated on and remains attached to the base of the well. At this time, the individual bacterial cell entering the space of each bottom microwell pattern of the microwell-patterned hydrogel is not free to move any further in and out of the microwell pattern and is isolated in the microwell-patterned area due to the pressure of the swollen hydrogel. In a state in which the hydrogel is fully expanded, continuous bacterial morphological changes can be observed after several hours by time-lapse imaging through an objective lens of the optical measurement system. As a result, time-lapse images of the individual bacterial cells can be obtained.
(§3) In the case of the Streptomyces atratus (spore-type actinomycetes) cultures, the final cell concentration of the wells was controlled at 7.5×10^7 CFU/mL with tryptic soy broth (TSB, Sparks, MD) and growth was at 28° C. […] After that, 227.5 μL (91% v/v) of Mueller-Hinton broth (MHB, Fluka Analytical), 2.5 μL (1% v/v) of the antibiotics, and 20 μL (8% v/v) of bacterial cells were mixed and growth was monitored at 37° C.
(§4) In this example, the Clinical Laboratory Standard Institute (CLSI) standard strains, Escherichia coli (E. coli) ATCC 25922 and Staphylococcus aureus (S. aureus) ATCC 29213 were tested with various concentrations of ampicillin and chloramphenicol to determine the minimum inhibitory concentration (MIC) values of the antibiotics. […] The cell growth images were recorded every hour for four hours to observe the change in cell number and morphological change to indicate growth.

[2] = test system: Staphylococcus aureus (S. aureus) ATCC 29213; assay: as above; format: cell-based
Procedure: as §1, §2, §3, §4

[3] = test system: methicillin-resistant Staphylococcus aureus (MRSA); assay: Rapid antibiotic susceptibility test with microwell-patterned hydrogel structures, running time 4 hours; format: cell-based; details: rapid method, running time 4 hours, read-out: minimum inhibitory concentration (MIC)
Procedure: In the case of the Streptomyces atratus (spore-type actinomycetes) cultures, the final cell concentration of the wells was controlled at 7.5×10^7 CFU/mL with tryptic soy broth (TSB, Sparks, MD) and growth was at 28° C. For the E. coli ATCC 25922, Staphylococcus aureus ATCC 29213, and methicillin resistant Staphylococcus aureus cultures, the initial concentration of bacterial cells injected into each well was set to 3×10^8 CFU/mL with Mueller-Hinton broth (MHB, Fluka Analytical). In order to adjust the concentration of antibiotics, ampicillin (Sigma-Aldrich) and chloramphenicol (Sigma-Aldrich), a two-fold serial dilution method was used. After that, 227.5 μL (91% v/v) of Mueller-Hinton broth (MHB, Fluka Analytical), 2.5 μL (1% v/v) of the antibiotics, and 20 μL (8% v/v) of bacterial cells were mixed and growth was monitored at 37° C.

[4] = test system: methicillin-resistant Staphylococcus aureus (MRSA); assay: Conventional antibiotic susceptibility test using turbidity, running time 18-24 hours; format: cell-based; details: conventional method using turbidity, running time 18-24 hours, read-out: minimum inhibitory concentration (MIC)
Description: Although numerous AST approaches have been studied, molecular and cell culturing systems are typical. The molecular AST method can obtain results quickly, in just a few hours, but can be adopted only in restrictive conditions with analytical equipment such as PCR machine and requires much more research to be used widely in clinical applications. In contrast with the molecular method, the cell culturing system is accurate and most used in the clinical arena, so it is regarded as the standard AST system. The most commonly employed AST process in the cell culturing system is the liquid microdilution method. This traditional AST system requires 18˜24 hours because the liquid microdilution method determines the minimum inhibitory concentration (MIC) of the relevant antibiotics by identifying a change in turbidity of culture wells. The turbidity is indirectly measured by optical density (OD) coming from cell growth, which is proportional to the concentration of the bacterial cells in the culture well. However, the OD evaluation is not sensitive to the bacterial cell population expansion when the concentration of the bacterial cells is conspicuously low. Thus, it needs 18-24 hours to accurately distinguish whether the bacterial cells grow or not under particular concentrations of antibiotics.

[5] = test system: E. coli ATCC 25922; details: cited from earlier work
[6] = test system: S. aureus ATCC 29213; details: cited from earlier work

Row | MIC [3] [µg/mL] | MIC [4] [µg/mL] | MIC ([1]; Escherichia coli, ATCC25922, 4 h, E. coli ATCC 25922, hydrogel device, images every hour for four hours, 37° C., read-out: minimum inhibitory concentration (MIC)) [µg/mL] | MIC ([2]; Staphylococcus aureus, ATCC29213, 4 h, S. aureus ATCC 29213, hydrogel device, images every hour for four hours, 37° C., read-out: minimum inhibitory concentration (MIC)) [µg/mL] | Compound | concentration at which cells could not divide and showed filamentary growth ([1]; E. coli, optical microscopic images, FIG. 8 (a)) [µg/mL] | concentration at which bacterial cells could not divide or grow ([2]; S. aureus, optical microscopic images, FIG. 8 (b)) [µg/mL] | CLSI minimum inhibitory concentration (MIC) range [5] [µg/mL] | CLSI minimum inhibitory concentration (MIC) range [6] [µg/mL]
1 | 64 (≈ 183 µM) | 64 (≈ 183 µM) | – | – | CC1(C)S[C@@H]2[C@H](NC(=O)[C@H](N)c3ccccc3)C(=O)N2[C@H]1C(=O)O [ampicillin] | ≥ 2 | ≥ 2 | 2 to 8 | 0.5 to 2
2 | – | – | 8 (≈ 24.8 µM) | 4 (≈ 12.4 µM) | O=C(N[C@H](CO)[C@H](O)c1ccc([N+](=O)[O-])cc1)C(Cl)Cl [chloramphenicol] | – | – | 2 to 8 | 2 to 8
